These results are taken from ChEMBL document CHEMBL6083264, “Superacid-Synthesized Fluorinated Diamines Act as Selective hCA IV Inhibitors” (J Med Chem, 2024).

Targets include Carbonic anhydrase 9 (Homo sapiens, UniProt Q16790); Carbonic anhydrase 2 (Homo sapiens, UniProt P00918); Carbonic anhydrase 12 (Homo sapiens, UniProt O43570); Carbonic anhydrase 1 (Homo sapiens, UniProt P00915).
Assay [1] deals with T1, Carbonic anhydrase 4 (Homo sapiens, UniProt P22748).
Description: Inhibition of human CA-IV-catalysed CO2 hydration activity incubated for 15 min by Phenol red dye based assay
Assay [2] addresses T1, Carbonic anhydrase 4. The source holds these as a separate data set.
Description: Inhibition of human CA-IV

Structures are written as SMILES.

Sequence of Carbonic anhydrase 1 (P00915 whole entry): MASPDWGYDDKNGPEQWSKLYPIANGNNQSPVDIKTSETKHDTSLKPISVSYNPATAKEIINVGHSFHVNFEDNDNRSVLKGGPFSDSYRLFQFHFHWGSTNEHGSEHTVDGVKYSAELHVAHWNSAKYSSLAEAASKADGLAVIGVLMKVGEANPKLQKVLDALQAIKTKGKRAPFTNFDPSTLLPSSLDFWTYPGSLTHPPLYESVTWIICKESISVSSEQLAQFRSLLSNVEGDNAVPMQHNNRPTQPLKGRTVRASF
Sequence of Carbonic anhydrase 12 (O43570 whole entry): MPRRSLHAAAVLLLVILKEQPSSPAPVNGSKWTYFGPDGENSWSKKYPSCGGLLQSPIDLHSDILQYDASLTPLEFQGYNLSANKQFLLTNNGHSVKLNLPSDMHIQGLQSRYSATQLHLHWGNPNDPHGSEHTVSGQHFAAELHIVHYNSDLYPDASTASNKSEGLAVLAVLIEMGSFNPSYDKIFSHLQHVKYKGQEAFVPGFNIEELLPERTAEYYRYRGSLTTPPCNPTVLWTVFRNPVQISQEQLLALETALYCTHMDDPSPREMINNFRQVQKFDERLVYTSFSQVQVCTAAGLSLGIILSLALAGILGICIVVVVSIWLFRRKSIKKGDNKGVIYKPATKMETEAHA
T1 sequence (P22748 whole entry): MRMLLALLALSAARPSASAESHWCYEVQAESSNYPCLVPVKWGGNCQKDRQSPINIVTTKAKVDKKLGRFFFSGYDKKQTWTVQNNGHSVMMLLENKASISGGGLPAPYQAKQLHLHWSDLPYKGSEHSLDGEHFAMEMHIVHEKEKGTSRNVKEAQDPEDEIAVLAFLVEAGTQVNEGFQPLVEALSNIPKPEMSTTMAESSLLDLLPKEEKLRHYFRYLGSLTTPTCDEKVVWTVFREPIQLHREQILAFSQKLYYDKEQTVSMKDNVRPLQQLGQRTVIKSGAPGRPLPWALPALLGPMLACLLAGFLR
Description for Carbonic anhydrase 12: Inhibition of human CA-XII-catalysed CO2 hydration activity incubated for 15 min by Phenol red dye based assay
Description for Carbonic anhydrase 2: Inhibition of human CA-II-catalysed CO2 hydration activity incubated for 15 min by Phenol red dye based assay
Description for Carbonic anhydrase 9: Inhibition of human CA-IX-catalysed CO2 hydration activity incubated for 15 min by Phenol red dye based assay

For `CCCNCCCCN`, the Ki at Carbonic anhydrase 9 is 3.08 µM; at Carbonic anhydrase 4 [1] it was 0.093 µM; at Carbonic anhydrase 2 it was more than 100 µM; on Carbonic anhydrase 12, 28.6 µM; on Carbonic anhydrase 1, more than 100 µM.
As for `CCCNCCCN`, the Ki on Carbonic anhydrase 9 was 2.95 µM; at Carbonic anhydrase 4 [1], 0.095 µM; on Carbonic anhydrase 2, more than 100 µM; at Carbonic anhydrase 12, 52.7 µM; at Carbonic anhydrase 1, more than 100 µM.
Turning to `CC(F)(F)CNCCCCN1C(=O)c2ccccc2C1=O`, the Ki at Carbonic anhydrase 4 [1] and at Carbonic anhydrase 1 was more than 100 µM in each case.
Take `CC(F)(F)CNCCCN1C(=O)c2ccccc2C1=O`: the Ki on Carbonic anhydrase 9, on Carbonic anhydrase 12 and on Carbonic anhydrase 1 was more than 100 µM each time.
In the case of `CN(CC(F)CN)S(=O)(=O)c1ccc([N+](=O)[O-])cc1` (centres undefined), the Ki at Carbonic anhydrase 9 is 89 µM; on Carbonic anhydrase 4 [1], 20.1 µM; at Carbonic anhydrase 2, 0.79 µM; at Carbonic anhydrase 12, 3.65 µM; on Carbonic anhydrase 1, more than 100 µM.
With `CC(F)CNCCCCN1C(=O)c2ccccc2C1=O` (centres undefined), the Ki at Carbonic anhydrase 9 is 0.026 µM; at Carbonic anhydrase 4 [1], 0.074 µM; at Carbonic anhydrase 2, 0.012 µM; at Carbonic anhydrase 12 it was 0.006 µM; at Carbonic anhydrase 1, 0.25 µM.
As to `CC(F)CNCCCN1C(=O)c2ccccc2C1=O` (centres undefined), the Ki on Carbonic anhydrase 9 was more than 100 µM; on Carbonic anhydrase 4 [1], 0.13 µM; on Carbonic anhydrase 2, 4.26 µM; at Carbonic anhydrase 12, more than 100 µM; at Carbonic anhydrase 1 it was more than 100 µM.
With `CC(F)(F)CNCCCN`, the Ki on Carbonic anhydrase 12 and on Carbonic anhydrase 1 was more than 100 µM each time.
Take `CC(F)CN(CCCN)S(=O)(=O)c1ccc([N+](=O)[O-])cc1` (centres undefined): the Ki on Carbonic anhydrase 9 was more than 100 µM; at Carbonic anhydrase 4 [1], 51.2 µM; on Carbonic anhydrase 2, 0.72 µM; at Carbonic anhydrase 12, 5.2 µM; at Carbonic anhydrase 1, more than 100 µM.
For the compound `O=[N+]([O-])c1ccc(S(=O)(=O)NCC(F)CCl)cc1` (centres undefined), the Ki at Carbonic anhydrase 9 is 20 µM; at Carbonic anhydrase 4 [1], more than 100 µM; on Carbonic anhydrase 2 it was 0.026 µM; on Carbonic anhydrase 12, 0.68 µM; at Carbonic anhydrase 1, 3.02 µM.
Take `CC(F)(F)CN(CCCCN1C(=O)c2ccccc2C1=O)S(=O)(=O)c1ccc([N+](=O)[O-])cc1`: the Ki on Carbonic anhydrase 9, at Carbonic anhydrase 4 [1], at Carbonic anhydrase 2 and on Carbonic anhydrase 1 was more than 100 µM each time.
With `CC(=O)N1N=C(c2ccc(S(N)(=O)=O)cc2)CC1c1c(Cl)cccc1Cl` (centres undefined), the affinity on Carbonic anhydrase 4 [1], expressed as Ki, was 0.0177 µM.
Regarding `CC(F)(F)CN(CCCN1C(=O)c2ccccc2C1=O)S(=O)(=O)c1ccc([N+](=O)[O-])cc1`, the inhibition constant (Ki) on Carbonic anhydrase 9, on Carbonic anhydrase 4 [1] and at Carbonic anhydrase 1 was more than 100 µM throughout.
In the case of `CC(F)CNCCCN` (centres undefined), the Ki on Carbonic anhydrase 9 was 1.44 µM; at Carbonic anhydrase 4 [1], 0.034 µM; at Carbonic anhydrase 2, 36.9 µM; at Carbonic anhydrase 12, more than 100 µM; on Carbonic anhydrase 1 it was more than 100 µM.
Take `CC(F)CNS(=O)(=O)c1ccc([N+](=O)[O-])cc1` (centres undefined): the Ki stood at 2.2 µM at Carbonic anhydrase 9; 0.071 µM at Carbonic anhydrase 4 [1]; 2.4 µM at Carbonic anhydrase 2; 4.2 µM at Carbonic anhydrase 12; 4.5 µM on Carbonic anhydrase 1. For the same compound, the IC50 against Carbonic anhydrase 4 [2] amounted to 0.071 µM.
Take `CC(F)(F)CNCCCCN`: the Ki at Carbonic anhydrase 2, at Carbonic anhydrase 12 and on Carbonic anhydrase 1 was more than 100 µM in each case.
Take `CC(F)CNCCCCN` (centres undefined): the Ki on Carbonic anhydrase 9 is 0.38 µM; on Carbonic anhydrase 4 [1], 0.028 µM; on Carbonic anhydrase 2, 63.7 µM; on Carbonic anhydrase 12, more than 100 µM; at Carbonic anhydrase 1, more than 100 µM.
Regarding `O=C1c2ccccc2C(=O)N1CC(F)CNS(=O)(=O)c1ccc([N+](=O)[O-])cc1` (centres undefined), the Ki on Carbonic anhydrase 9 is more than 100 µM; on Carbonic anhydrase 4 [1], more than 100 µM; at Carbonic anhydrase 2, 0.076 µM; on Carbonic anhydrase 12, more than 100 µM; at Carbonic anhydrase 1, more than 100 µM.
Regarding `CN(CC(F)CCl)S(=O)(=O)c1ccc([N+](=O)[O-])cc1` (centres undefined), the Ki at Carbonic anhydrase 9, at Carbonic anhydrase 4 [1], on Carbonic anhydrase 2, on Carbonic anhydrase 12 and at Carbonic anhydrase 1 was more than 100 µM throughout.
Regarding `CC(F)CN(CCCN1C(=O)c2ccccc2C1=O)S(=O)(=O)c1ccc([N+](=O)[O-])cc1` (centres undefined), the Ki was more than 100 µM on Carbonic anhydrase 9; more than 100 µM at Carbonic anhydrase 4 [1]; 78.4 µM at Carbonic anhydrase 2; 7 µM at Carbonic anhydrase 12; more than 100 µM at Carbonic anhydrase 1.
As for `CC(F)CN(CCCCN1C(=O)c2ccccc2C1=O)S(=O)(=O)c1ccc([N+](=O)[O-])cc1` (centres undefined), the Ki was more than 100 µM at Carbonic anhydrase 9; more than 100 µM on Carbonic anhydrase 4 [1]; 34 µM at Carbonic anhydrase 2; 0.64 µM at Carbonic anhydrase 12; more than 100 µM on Carbonic anhydrase 1.
In the case of `CN(CC(F)CN1C(=O)c2ccccc2C1=O)S(=O)(=O)c1ccc([N+](=O)[O-])cc1` (centres undefined), the Ki at Carbonic anhydrase 9, at Carbonic anhydrase 4 [1], at Carbonic anhydrase 2, at Carbonic anhydrase 12 and at Carbonic anhydrase 1 was more than 100 µM in each case.

What is called Ki is a dissociation constant, usually derived from enzyme kinetics or from competition with a known ligand. A low value points to a stronger hold on the target. As a reminder, the IC50 is the point on the concentration scale where inhibition reaches its midpoint.
